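48-hour exposure; five concentrations; linearly interpolated endpoints. At the GI50, growth is halved.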 Activity calls are given as the source filed them. Rule as the data show it: active = GI50 up to about 1.1 µM and inactive = higher.
How the values were obtained:
Assay in all cases: growth of human tumour cells (NCI), 48 h
OVCAR-4 = tested on: OVCAR-4
ACHN = tested on: ACHN
MCF7 = tested on: MCF7
MDA-N = tested on: MDA-N
UO-31 = tested on: UO-31
MOLT-4 = tested on: MOLT-4
SNB-75 = tested on: SNB-75
OVCAR-8 = tested on: OVCAR-8
DU-145 = tested on: DU-145
HOP-62 = tested on: HOP-62
COLO 205 = tested on: COLO 205
HCT-15 = tested on: HCT-15
SK-MEL-5 = tested on: SK-MEL-5
NCI-H460 = tested on: NCI-H460
K562 = tested on: K562
SW-620 = tested on: SW-620
OVCAR-5 = tested on: OVCAR-5
NCI-H226 = tested on: NCI-H226
NCI-H23 = tested on: NCI-H23

Compound | GI50 (OVCAR-4) | GI50 (ACHN) | GI50 (MCF7) | GI50 (MDA-N) | GI50 (UO-31) | GI50 (MOLT-4) | GI50 (SNB-75) | GI50 (OVCAR-8) | GI50 (DU-145) | GI50 (HOP-62) | GI50 (COLO 205) | GI50 (HCT-15) | GI50 (SK-MEL-5) | GI50 (NCI-H460) | GI50 (K562) | GI50 (SW-620) | GI50 (OVCAR-5) | GI50 (NCI-H226) | GI50 (NCI-H23)
O=C(O)c1cc(C(=O)O)nc(C(=O)O)c1 | > 100 µM (inactive) | > 100 µM (inactive) | > 100 µM (inactive) | > 100 µM (inactive) | > 100 µM (inactive) | > 100 µM (inactive) | > 100 µM (inactive) | > 100 µM (inactive) | > 100 µM (inactive) | > 100 µM (inactive) | > 100 µM (inactive) | > 100 µM | > 100 µM (inactive) | > 100 µM (inactive) | > 100 µM (inactive) | > 100 µM (inactive) | > 100 µM (inactive) | > 100 µM (inactive) | > 100 µM (inactive)
Cc1ccc(-c2nc3cc([N+](=O)[O-])ccc3[nH]2)cc1 | 81.8 µM (inactive) | 53 µM (inactive) | > 100 µM (inactive) | > 100 µM (inactive) | 57.8 µM (inactive) | 47.4 µM (inactive) | > 100 µM (inactive) | 93.1 µM (inactive) | 82.8 µM (inactive) | > 100 µM (inactive) | 72.9 µM (inactive) | 52.8 µM | 64.7 µM (inactive) | 42.8 µM (inactive) | 59.3 µM (inactive) | > 100 µM (inactive) |  | > 100 µM (inactive) | > 100 µM (inactive)
CC[P+](c1ccccc1)(N(C)C)N(C)C | > 100 µM (inactive) | > 100 µM (inactive) | > 100 µM (inactive) | > 100 µM (inactive) | > 100 µM (inactive) | > 100 µM (inactive) | > 100 µM (inactive) | > 100 µM (inactive) | > 100 µM (inactive) | > 100 µM (inactive) | > 100 µM (inactive) | > 100 µM | 54.5 µM (inactive) | > 100 µM (inactive) | > 100 µM (inactive) | > 100 µM (inactive) | > 100 µM (inactive) | 59.8 µM (inactive) | > 100 µM (inactive)
CC(C)C1OC(/C=C/c2ccccc2)OCC1(C)C (configuration not stated) | 33.6 µM (inactive) | 32.2 µM (inactive) | 31.8 µM (inactive) | 36.3 µM (inactive) | 34.8 µM (inactive) |  | 26.9 µM (inactive) | 31.6 µM (inactive) | 37.2 µM (inactive) | 32.1 µM (inactive) | 16.6 µM (inactive) | 24.8 µM | 17.7 µM (inactive) | 17.1 µM (inactive) | 25.4 µM (inactive) | 30.7 µM (inactive) | 44.5 µM (inactive) | 23.5 µM (inactive) | 27.7 µM (inactive)
CN(C)c1ccc2nc3c(C(=O)O)cc(O)c(O)c3[o+]c2c1 | 29 µM (inactive) | 31.5 µM (inactive) | 21.1 µM (inactive) | 23.1 µM (inactive) | 28.6 µM (inactive) | 14.4 µM (inactive) | 21.5 µM (inactive) | 41 µM (inactive) | 31.8 µM (inactive) | 52.8 µM (inactive) | 24.7 µM (inactive) | 37.5 µM | 15.3 µM (inactive) | 24.8 µM (inactive) | 22.4 µM (inactive) | 31 µM (inactive) | 65.3 µM (inactive) | 56.5 µM (inactive) | 16.8 µM (inactive)
Cc1c2c(c(O)c3c(O)cccc13)C(=O)C1(O)C(=O)C(C(=O)NCNc3ccc(C(N)=O)cn3)=C(O)C(N(C)C)C1C2 (configuration not stated) | 1.93 µM (inactive) |  | 9.27 µM (inactive) | 4.49 µM (inactive) |  | 2.74 µM (inactive) | 2.84 µM (inactive) | 3.21 µM (inactive) | 4.39 µM (inactive) | 6 µM (inactive) | 6.28 µM (inactive) | 2.8 µM | 2.16 µM (inactive) |  | 2.4 µM (inactive) | 3.52 µM (inactive) | 5.02 µM (inactive) | 2.94 µM (inactive) | 7.74 µM (inactive)
c1ccc(C(CCN2CCCC2)c2ccccn2)cc1 (configuration not stated) | > 100 µM (inactive) | > 100 µM (inactive) | > 100 µM (inactive) | > 100 µM (inactive) | > 100 µM (inactive) |  | > 100 µM (inactive) | > 100 µM (inactive) | > 100 µM (inactive) | > 100 µM (inactive) | > 100 µM (inactive) | > 100 µM | > 100 µM (inactive) | > 100 µM (inactive) | > 100 µM (inactive) | > 100 µM (inactive) | > 100 µM (inactive) | > 100 µM (inactive) | > 100 µM (inactive)
Cc1ccc2nc(Cl)c(/C=N/N3C(=O)/C(=C/c4cccc([N+](=O)[O-])c4)N=C3c3ccccc3)cc2c1 | 58.7 µM (inactive) | 49.1 µM (inactive) | 20.3 µM (inactive) | 20.4 µM (inactive) | 38 µM (inactive) | 29.2 µM (inactive) | 59.6 µM (inactive) | 72.4 µM (inactive) | > 100 µM (inactive) | 50.2 µM (inactive) | 38.7 µM (inactive) | 42.2 µM | 43.5 µM (inactive) | 34.4 µM (inactive) | 47.6 µM (inactive) | 75.5 µM (inactive) | > 100 µM (inactive) |  | 
C=CCn1c(=O)c2ccccc2[n+]2c(-c3cccc([N+](=O)[O-])c3)csc12 | 64.4 µM (inactive) | > 100 µM (inactive) | 42.9 µM (inactive) | 66.2 µM (inactive) | 28.6 µM (inactive) | 24.7 µM (inactive) | 17.5 µM (inactive) | 34.8 µM (inactive) | 50.4 µM (inactive) | 76.7 µM (inactive) | 24.8 µM (inactive) |  | 11.4 µM (inactive) | 42.1 µM (inactive) | 28.4 µM (inactive) | > 100 µM (inactive) | > 100 µM (inactive) | 12.5 µM (inactive) | 54.5 µM (inactive)
CCCC(=O)NC(C(=O)OCC)(N1CCOCC1)C(F)(F)F (configuration not stated) | > 100 µM (inactive) | > 100 µM (inactive) | > 100 µM (inactive) | > 100 µM (inactive) | > 100 µM (inactive) | > 100 µM (inactive) | > 100 µM (inactive) | > 100 µM (inactive) | > 100 µM (inactive) | > 100 µM (inactive) | > 100 µM (inactive) | > 100 µM | > 100 µM (inactive) |  | > 100 µM (inactive) | > 100 µM (inactive) | > 100 µM (inactive) | > 100 µM (inactive) | > 100 µM (inactive)
O=c1oc2ccccc2cc1/C=N/N1C(=S)N(c2ccccc2)C(=N\c2ccccc2)/C1=N/c1ccccc1 |  | 39.6 µM (inactive) | > 100 µM (inactive) | 20.5 µM (inactive) | > 100 µM (inactive) | > 100 µM (inactive) | 1.65 µM (inactive) | 34.6 µM (inactive) | > 100 µM (inactive) | 52.2 µM (inactive) | > 100 µM (inactive) | > 100 µM | 87.7 µM (inactive) | 47.6 µM (inactive) | > 100 µM (inactive) | 8.71 µM (inactive) | > 100 µM (inactive) | > 100 µM (inactive) | > 100 µM (inactive)
CCOC(=O)Nc1sc2c(c1C#N)CC(C)CC2 (configuration not stated) | 18.7 µM (inactive) | 14.7 µM (inactive) | 3.96 µM (inactive) | 1.6 µM (inactive) | 8.91 µM (inactive) | 4.9 µM (inactive) | 2.82 µM (inactive) | 8.75 µM (inactive) | 20.9 µM (inactive) | 9.79 µM (inactive) | 4.17 µM (inactive) | 2.75 µM | 4.8 µM (inactive) | 3.41 µM (inactive) | 2.38 µM (inactive) | 4.74 µM (inactive) | 16.3 µM (inactive) | 6.15 µM (inactive) | 25.6 µM (inactive)
CCC(C)C(=O)OCC(=O)c1ccc(-c2ccccc2)cc1 (configuration not stated) |  | > 100 µM (inactive) | 44.8 µM (inactive) | 45.7 µM (inactive) | > 100 µM (inactive) | 46.9 µM (inactive) | 80.7 µM (inactive) | 79.3 µM (inactive) | 52.2 µM (inactive) | > 100 µM (inactive) | > 100 µM (inactive) | 18.1 µM | 24.7 µM (inactive) | > 100 µM (inactive) | 41 µM (inactive) | 53.6 µM (inactive) | > 100 µM (inactive) |  | 63.7 µM (inactive)
O=C1N=C(S)NNC12c1ccccc1-c1ccccc12 | > 10 µM (inactive) |  | 8.71 µM (inactive) | > 10 µM (inactive) | 4.81 µM (inactive) | > 10 µM (inactive) | > 10 µM (inactive) | > 10 µM (inactive) | > 10 µM (inactive) | > 10 µM (inactive) | > 10 µM (inactive) | > 10 µM | 5.22 µM (inactive) | 5.42 µM (inactive) | > 10 µM (inactive) | > 10 µM (inactive) |  | > 10 µM (inactive) | > 10 µM (inactive)
COc1ccc2oc(=O)c(CC=C(C)C)c(O)c2c1C |  | > 100 µM (inactive) | > 100 µM (inactive) | > 100 µM (inactive) | > 100 µM (inactive) | 36.4 µM (inactive) | > 100 µM (inactive) | > 100 µM (inactive) | > 100 µM (inactive) | > 100 µM (inactive) | > 100 µM (inactive) | > 100 µM | > 100 µM (inactive) | > 100 µM (inactive) | > 100 µM (inactive) | > 100 µM (inactive) | > 100 µM (inactive) | > 100 µM (inactive) | > 100 µM (inactive)
COc1cc(C2c3cc4c(cc3OC(NN)C2C)OCO4)cc(OC)c1OC (configuration not stated) | 23.6 µM (inactive) | 1.78 µM (inactive) | 0.443 µM (active) | 0.123 µM (active) | 6.85 µM (inactive) | 0.406 µM (active) | 0.289 µM (active) | 1.93 µM (inactive) | 1.94 µM (inactive) | 0.462 µM (active) | 0.575 µM (active) | 0.406 µM | 0.478 µM (active) | 0.489 µM (active) | 0.333 µM (active) | 0.447 µM (active) |  | 0.979 µM (active) | 1.11 µM (active)
